Test results from article PMC10655324, “Combinative effects of akarkara root-derived metabolites on anti-inflammatory and anti-alzheimer key enzymes: integrating bioassay-guided fractionation, GC-MS analysis, and in silico studies” (BMC Complementary Medicine and Therapies, 2023).
Like-named read-outs stand apart in the source and are kept apart here.

Tests used:
[1] = DPPH radical scavenging assay; conditions: for IC50: isolated compounds and Trolox
Experimental: The extract and fractions were prepared in dimethyl sulfoxide (DMSO) at a concentration of 1mg/mL, while the isolated compounds were tested in 500 µM.
The 2,2-diphenyl-1-picrylhydrazyl (DPPH) assay was performed as described previously. One hundred μL of DPPH reagent (freshly prepared as 0.1% in methanol) was mixed with equal volume of each sample. Then, the solutions were left in the dark at room temperature for […]. Trolox (6-hydroxy-2,5,7,8-tetramethylchroman-2-carboxylic acid) was used as a positive control. The absorbances were measured at 517 nm. Data are represented as means ± SD according to the following equation:
Percentage inhibition = [(Average absorbance of blank - average absorbance of the test)/(Average absorbance of blank)] x 100
The IC50 of each tested sample was determined.

iNOS = iNOS inhibitory activity in LPS-induced RAW264.7 macrophages (nitrite, Griess reagent); assay type: cell-based; conditions: Mus musculus
Experimental: The RAW264.7 macrophage cells were grown on DMEM media, supplemented with 10% FBS and 1% P/S (100 U/ml and […], respectively). The RAW264.7 macrophage cells were kept in DMEM at 37 °C and 5% CO2. For the anti-inflammatory assays, cells were used at 60% confluency after a 24-hour acclimatization period.
Stock solutions of the extract, fractions (1 mg/mL) and the isolated compounds (1000 μM) were made by dissolving in 0.1% DMSO in PBS (pH 7.2). For experiments, they were further diluted with DMEM to obtain the desired concentration. In a 96-well plate, the RAW264.7 macrophages were seeded (4 × 10^3 cells per well) overnight, then washed with DMEM. The macrophages were pre-treated with various concentrations of the extract, fractions (125- 0.98 µg/mL), isolated compounds, and standard drugs (125 - 0.06 µM) for 30 min, and further incubated with LPS (1 μg/mL) for 24 h. For the negative control, cells were treated with 0.1% DMSO (negative control LPS-). After incubation, the monolayer of […] cells were washed with ice-cold PBS (pH 7.2), trypsinized, and treated with lysis buffer (1% Triton X-100, 50 mMTris–HCl, pH 7.4, 0.2% sodium dodecyl sulfate, 0.2% sodium deoxycholate, 1 mM phenylmethylsulfonyl fluoride, 1 mM sodium ethylenediaminetetraacetate, 5 μg/mL of leupeptin, 5 μg/mL of aprotinin) then centrifuged (5000 rpm for 10 min) to collect the supernatant, The cell lysates were stored at − 80 °C utilized for anti-inflammatory assays.
The inhibitory activity of Inducible nitric oxide synthase (iNOS) was determined in terms of nitric oxide (NO) concentration by measuring the quantity of nitrite in the cell culture supernatant using Griess reagent. Equal volumes of each cell lysate (100 µL) and Griess reagent (1% sulfanilamide, 0.1% naphthylethylenediamine dihydrochloride, and 5% phosphoric acid) were mixed and incubated at room temperature for 10 min. Using a microplate reader, absorbances at 540 nm were measured. Parthenolide served as a positive control. The % inhibition was calculated using the following formula:
iNOS % Inhibition= [(OD control−OD sample)/ OD control x 100].

BChE = BChE (Homo sapiens, UniProt P06276); assay: biochemical
Chain of BChE (P06276 29-602, species assumed): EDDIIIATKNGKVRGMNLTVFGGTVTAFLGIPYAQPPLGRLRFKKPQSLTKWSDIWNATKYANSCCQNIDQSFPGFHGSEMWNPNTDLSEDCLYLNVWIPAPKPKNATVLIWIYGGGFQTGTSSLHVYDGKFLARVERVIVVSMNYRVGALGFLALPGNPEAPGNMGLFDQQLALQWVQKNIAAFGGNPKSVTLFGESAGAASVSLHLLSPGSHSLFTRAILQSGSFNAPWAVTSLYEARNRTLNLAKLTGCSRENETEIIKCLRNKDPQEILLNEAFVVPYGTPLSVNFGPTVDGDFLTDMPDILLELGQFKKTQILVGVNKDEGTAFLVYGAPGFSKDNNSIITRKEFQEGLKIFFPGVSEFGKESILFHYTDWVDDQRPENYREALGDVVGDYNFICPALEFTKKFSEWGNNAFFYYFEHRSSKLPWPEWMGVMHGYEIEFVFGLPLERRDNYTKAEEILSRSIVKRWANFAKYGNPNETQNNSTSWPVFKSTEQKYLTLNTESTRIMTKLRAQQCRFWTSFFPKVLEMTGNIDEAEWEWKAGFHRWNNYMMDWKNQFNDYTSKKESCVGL
Experimental: (§1) The cholinesterase inhibitory activity was determined colorimetrically as previously published method with slight modifications. […] In a 96-well plate, 170 μl Tris-HCl buffer (200 mM, pH 7.5) was mixed with 20 μL of each tested sample solution and 20 μL of 0.1 U/ml enzyme solution (Ache or BChE) containing 0.1% bovine serum albumin in the same buffer. Dithio-bis-(2-nitrobenzoic acid) DTNB, an indicator, was added after 10 min of incubation at 25 °C (0.69 mM in tris buffer). […] In the control assays without the inhibitors, the tested samples were replaced by DMSO (20 μl) and their absorbance values were recorded (Reading B). Regarding the blank assays, the buffer (20 μL) was added instead of the enzyme.
(§2) The % inhibition was calculated using the following formula:
(§3) % of inhibition = [1− (corrected A/corrected B)] * 100

AChE = AChE (Homo sapiens, UniProt P22303); assay: biochemical
Chain of AChE (P22303 32-614): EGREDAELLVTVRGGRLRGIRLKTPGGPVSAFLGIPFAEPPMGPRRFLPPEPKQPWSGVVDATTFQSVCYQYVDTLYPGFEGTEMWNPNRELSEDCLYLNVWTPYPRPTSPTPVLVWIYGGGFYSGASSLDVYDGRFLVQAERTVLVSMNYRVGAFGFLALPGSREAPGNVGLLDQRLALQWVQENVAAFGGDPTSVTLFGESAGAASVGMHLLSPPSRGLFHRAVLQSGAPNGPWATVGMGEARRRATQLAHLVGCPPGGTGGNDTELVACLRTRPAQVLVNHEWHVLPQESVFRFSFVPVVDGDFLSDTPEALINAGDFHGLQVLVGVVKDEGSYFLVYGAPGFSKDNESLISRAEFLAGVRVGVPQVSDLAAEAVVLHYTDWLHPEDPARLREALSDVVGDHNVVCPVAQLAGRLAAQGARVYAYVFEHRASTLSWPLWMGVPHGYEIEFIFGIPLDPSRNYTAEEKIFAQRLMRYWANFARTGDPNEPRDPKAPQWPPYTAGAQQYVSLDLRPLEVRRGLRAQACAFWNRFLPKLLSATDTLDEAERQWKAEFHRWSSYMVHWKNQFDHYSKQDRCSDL
Experimental: as §1, §2, §3

[2] = LPS-induced RAW264.7 macrophages, isolated compounds and Parthenolide, read-out: iNOS IC50

SMILES	IC50 [1]	IC50 (iNOS; RAW264.7, read-out: iNOS IC50)	IC50 (BChE)	IC50 (AChE)	IC50 (iNOS; [2])	DPPH IC50 ([1]; extract, fractions and Trolox standard)
CCCCCCCC/C=C\CCCCCCCC(N)=O [A1, 9-cis-octadecenamide]	21.67 ± 0.21 µM	10.3 ± 0.12 µM	9.29 ± 0.29 µM	8.37 ± 0.1 µM		
CC[C@H](/C=C/[C@@H](C)[C@H]1CC[C@H]2[C@@H]3CC=C4C[C@@H](O)CC[C@]4(C)[C@H]3CC[C@]12C)C(C)C [A2, stigmasterol]	16.4 ± 0.23 µM	6.72 ± 0.08 µM				
CCCCC/C=C/C=C/C(=O)NCCc1ccccc1 [A3, 2E, 4E-deca-2,4-dienoic acid 2-phenylethyl amide]	17.73 ± 0.16 µM		8.65 ± 0.25 µM	7.7 ± 0.26 µM	9.15 ± 0.12 µM	
CCCCC/C=C/C=C/C(=O)NCC(C)C [A4, deca-2E,4E-dienoic acid isobutylamide]	22.6 ± 0.41 µM	11.4 ± 0.36 µM				
C=C1C(=O)O[C@H]2[C@H]1CC/C(C)=C/CC[C@@]1(C)O[C@@H]21 [Parthenolide, reference compound]					4.1 ± 0.08 µM	
Cc1c(C)c2c(c(C)c1O)CCC(C)(C(=O)O)O2 (stereo not drawn) [Trolox, 6-hydroxy-2,5,7,8-tetramethylchroman-2-carboxylic acid, reference compound]	5.63 µM					1.41 ± 0.08 µg/mL
